{
  "source": "patent US7915299B2",
  "about": "“2-(2-hydroxyphenyl)benzimidazoles useful for treating obesity and diabetes” (High Point Pharmaceuticals, LLC, priority 2006, dated 2011)",
  "data": [
    {"units": {"melting point": "°C"}, "values": [
      {"smiles": "Cc1ccc(C(C)(C)C)c(O)c1-c1nc2ccc(S(=O)(=O)C(F)(F)F)cc2[nH]1", "note": "[Example 12, 6-tert-Butyl-3-methyl-2-(5-trifluoromethanesulfonyl-1H-benzimidazol-2-yl)-phenol]", "melting point": "218 to 220"},
      {"smiles": "Cc1c(Br)cc(C(C)(C)C)c(O)c1-c1nc2cc(OC(F)(F)F)ccc2[nH]1", "note": "[Example 13, 6-tert-Butyl-4-bromo-3-methyl-2-(5-trifluoromethoxy-1H-benzimidazol-2-yl)-phenol]", "melting point": "235 to 236"},
      {"smiles": "Cc1c(Cl)cc(C(C)(C)C)c(O)c1-c1nc2cc(S(=O)(=O)C(F)(F)F)ccc2[nH]1", "note": "[Example 1, 6-tert-Butyl-4-chloro-3-methyl-2-(5-trifluoromethanesulfonyl-1H-benzimidazol-2-yl)-phenol]", "melting point": "253 to 254"},
      {"smiles": "CSc1cc(C(C)(C)C)c(O)c(-c2nc3cc(S(=O)(=O)C(F)(F)F)ccc3[nH]2)c1C", "note": "[Example 9, 6-tert-Butyl-3-methyl-4-methylsulfanyl-2-(5-trifluoromethanesulfonyl-1H-benzimidazol-2-yl)-phenol]", "melting point": "210 to 211"},
      {"smiles": "Cc1c(Cl)cc(C(C)(C)C)c(O)c1-c1nc2cc(OC(F)(F)F)ccc2[nH]1", "note": "[Example 7, 6-tert-Butyl-4-chloro-3-methyl-2-(5-trifluoromethoxy-1H-benzimidazol-2-yl)-phenol]", "melting point": "243 to 244"},
      {"smiles": "Cc1ccc(C(C)(C)C)c(O)c1-c1nc2cc(C#N)ccc2[nH]1", "note": "[Example 4, 2-(3-tert-Butyl-2-hydroxy-6-methyl-phenyl)-1H-benzimidazole-5-carbonitrile]", "melting point": "212 to 215"},
      {"smiles": "Cc1c(F)cc(C(C)(C)C)c(O)c1-c1nc2ccc(S(=O)(=O)C(F)(F)F)cc2[nH]1", "note": "[Example 11, 6-tert-Butyl-4-fluoro-3-methyl-2-(5-trifluoromethanesulfonyl-1H-benzimidazol-2-yl)-phenol]", "melting point": "245 to 247"},
      {"smiles": "COc1ccc(C(C)(C)C)c(O)c1-c1nc2cc(S(=O)(=O)C(F)(F)F)ccc2[nH]1", "note": "[Example 8, 6-tert-Butyl-3-methoxy-2-(5-trifluoromethanesulfonyl-1H-benzimidazol-2-yl)-phenol]", "melting point": "55 to 56"},
      {"smiles": "CCN(CC)S(=O)(=O)c1ccc2[nH]c(-c3c(C)c(Cl)cc(C(C)(C)C)c3O)nc2c1", "note": "[Example 6, 2-(3-tert-Butyl-5-chloro-2-hydroxy-6-methyl-phenyl)-1H-benzimidazole-5-sulfonic acid diethylamide]", "melting point": "277 to 278"}
    ]}
  ]
}
